The nature of this experiment: APP processing: AlphaLisa assay of secreted Aβ40 and Aβ42 from SP4CT cells. Format: cell-based. The following applies: Homo sapiens, SH-SY5Y cells expressing amyloid β protein (SP4CT cells). As to the method: APP Processing (Assay Quantitates Secreted Aβ Analytes from Cell Lines):
The effect of compounds on the abundance of Aβ40 and Aβ42 peptides generated from SH-SY5Y cells expressing amyloid β protein (SP4CT cells) are determined by an AlphaLisa™ assay. Analogous to an ELISA assay, generation of […] AlphaLisa™ assay requires “donor” and “acceptor” beads to be brought in close proximity by specific antibody recognition of either Aβ40 or Aβ42 peptides. The assay is accomplished by removing media from compound-treated SP4CT cells to two different microplates, followed by the addition of donor beads conjugated with streptavidin binding a biotinylated anti-amyloid β monocolonal antibody (clone 4G8). Acceptor beads directly conjugated with anti-Aβ40 monoclonal antibody (G210) are added to one microplate and anti-Aβ42 monoclonal antibody (12F4) acceptor beads were added to the other. Abundance of Aβ40 and Aβ42 is directly proportional to the luminescent signal generated following excitation of donor beads by laser light.
For orientation: Alpha assays give light when donor and acceptor beads are brought close together.

[1] abbreviates: read-out: IC50, inhibition of production of Aβ40 peptide.
Setting [2] is: read-out: IC50, inhibition of production of Aβ42 peptide.

Where two headings read alike, the source gives them in different places.

What is called IC50 is the concentration needed to halve the response being measured. `CCn1nc(-c2cccc(C(C)(C)NS(=O)(=O)C3CC3)c2)cc1Oc1ccc(C(F)(F)F)cc1` [Example 12, N-[1-(3-{1-ethyl-5-[4-(trifluoromethyl)phenoxy]-1H-pyrazol-3-yl}phenyl)-1-methylethyl] cyclopropanesulfonamide]: the IC50 reads like this: under setting [1], less than 200 nM; under setting [2], less than 200 nM.
For `CCn1nc(-c2cccc(C(C)(C)NS(=O)(=O)CC(F)(F)F)c2)cc1Oc1ccc(C(F)(F)F)cc1` [Example 1, N-[1-(3-{1-ethyl-5-[4-(trifluoromethyl)phenoxy]-1H-pyrazol-3-yl}phenyl)-1-methylethyl]-2,2,2-trifluoroethanesulfonamide], the IC50 was less than 200 nM under setting [1] and less than 200 nM under setting [2].
On to `CCn1nc(-c2cccc(C(C)(C)NS(=O)(=O)CC(F)(F)F)c2)cc1Oc1ccc(CNc2nccs2)cc1` [Example 86, N-{1-[3-(1-ethyl-5-{4-[(1,3-thiazol-2-ylamino)methyl]phenoxy}-1H-pyrazol-3-yl)phenyl]-1-methylethyl}-2,2,2-trifluoroethanesulfonamide], for which the IC50 by setting is: under setting [1], less than 200 nM; under setting [2], less than 200 nM.
As for `CCn1nc(-c2cccc(C(C)(C)NS(=O)(=O)CC(F)(F)F)c2)cc1Oc1ccc(C(C)F)cc1` (centres unmarked) [Example 68, N-[1-(3-{1-ethyl-5-[4-(1-fluoroethyl)phenoxy]-1H-pyrazol-3-yl}phenyl)-1-methylethyl]-2,2,2-trifluoroethanesulfonamide], the IC50 is, setting by setting: under setting [1], less than 200 nM; under setting [2], less than 200 nM.
Take `CCn1nc(-c2cccc(C(C)(C)NS(=O)(=O)CC(F)(F)F)c2)cc1Oc1ccc(C=O)cc1` [Example 61, N-(1-{3-[1-ethyl-5-(4-formylphenoxy)-1H-pyrazol-3-yl]phenyl}-1-methylethyl)-2,2,2-trifluoroethanesulfonamide]: the concentration for half-maximal inhibition (IC50) under setting [1] was less than 200 nM and the IC50 under setting [2] was less than 200 nM.
Consider `CCn1nc(-c2cccc(C3(NS(=O)(=O)NCC(F)(F)F)CC3)c2)cc1Oc1ccc(C(F)(F)F)cn1` [Example 41, N-{1-[3-(1-ethyl-5-{[5-(trifluoromethyl)pyridin-2-yl]oxy}-1H-pyrazol-3-yl)phenyl]cyclopropyl}-N′-(2,2,2-trifluoroethyl)sulfamide], for which the IC50 under setting [1] was less than 200 nM and the IC50 under setting [2] is less than 200 nM.
As for `CCn1nc(Oc2ccc(F)cc2)cc1-c1cccc(C(C)(C)NS(=O)(=O)NCC(F)(F)F)c1` [Example 55, N-(1-{3-[1-ethyl-3-(4-fluorophenoxy)-1H-pyrazol-5-yl]phenyl}-1-methylethyl)-N'-(2,2,2-trifluoroethyl)sulfamide], the IC50 is less than 200 nM under setting [1] and less than 200 nM under setting [2].
As for `CCn1nc(-c2cccc(C(C)(C)NS(=O)(=O)CC(F)(F)F)c2)cc1Oc1ccc(CNc2ccccc2)cc1` [Example 84, N-[1-(3-{5-[4-(anilinomethyl)phenoxy]-1-ethyl-1H-pyrazol-3-yl}phenyl)-1-methylethyl]-2,2,2-trifluoroethanesulfonamide], the IC50 reads like this: under setting [1], less than 200 nM; under setting [2], less than 200 nM.
`CC(C)(NS(=O)(=O)CC(F)(F)F)c1cccc(-c2cc(Oc3ccc(C(F)(F)F)cc3)n(CCO)n2)c1` [Example 105, 2,2,2-trifluoro-N-[1-(3-{1-(2-hydroxyethyl)-5-[4-(trifluoromethyl)phenoxy]-1H-pyrazol-3-yl}phenyl)-1-methylethyl]ethanesulfonamide]: the IC50 runs as follows: under setting [1], less than 200 nM; under setting [2], less than 200 nM.
For `CCCNS(=O)(=O)NC1Cc2ccc(-c3cc(Oc4ccc(C(F)(F)F)cc4)nn3CC)cc2C1` (centres unmarked) [Example 123, N-(5-{1-ethyl-3-[4-(trifluoromethyl)phenoxy]-1H-pyrazol-5-yl}-2,3-dihydro-1H-inden-2-yl)-N′-propylsulfamide], the IC50 by setting is: under setting [1], less than 200 nM; under setting [2], less than 200 nM.
For `CCn1nc(-c2cccc(C(C)(C)NS(=O)(=O)CC(F)(F)F)c2)cc1Oc1ccc(CNc2ccc(OC)cc2)cc1` [Example 82], the IC50 runs as follows: under setting [1], less than 200 nM; under setting [2], less than 200 nM.
Take `CCCNS(=O)(=O)NC1(c2cccc(-c3cc(Oc4ccc(C(F)(F)F)cc4)n(CC)n3)c2)CC1` [Example 46, N-[1-(3-{1-ethyl-5-[4-(trifluoromethyl)phenoxy]-1H-pyrazol-3-yl}phenyl)cyclopropyl]-N′-propylsulfamide]: the half-inhibitory concentration (IC50) was less than 200 nM under setting [1] and less than 200 nM under setting [2].
Regarding `CCn1nc(-c2cccc(C(C)(C)NS(=O)(=O)CC(F)(F)F)c2)c(I)c1Oc1ccc(C(F)(F)F)cc1` [Example 116, N-[2-(3-{1-ethyl-4-iodo-5-[4-(trifluoromethyl)phenoxy]-1H-pyrazol-3-yl}phenyl)propan-2-yl]-2,2,2-trifluoroethanesulfonamide], the IC50 is less than 200 nM under setting [1] and less than 200 nM under setting [2].
For `O=S(=O)(CC(F)(F)F)NC1(c2cccc(-c3cc(Oc4ccc(C(F)(F)F)cc4)n(Cc4cocn4)n3)c2)COC1` [Example 134, N-(3-{3-[5-(4-trifluoromethylphenoxy)-1-(1,3-oxazol-4-ylmethyl)-1H-pyrazol-3-yl]phenyl}oxetan-3-yl)-2,2,2-trifluoroethanesulfonamide], the IC50 is less than 200 nM under setting [1] and less than 200 nM under setting [2].
As for `CCn1nc(-c2cccc(C(C)(C)NS(=O)(=O)CC(F)(F)F)c2)cc1Oc1ccc(C(=O)NCC2CCCO2)cc1` (centres unmarked) [Example 74, 4-({1-ethyl-3-[3-(1-methyl-1-{[(2,2,2-trifluoroethyl)sulfonyl]amino}ethyl)phenyl]-1H-pyrazol-5-yl}oxy)-N-(tetrahydrofuran-2-ylmethyl)benzamide], the IC50 by setting is: under setting [1], less than 200 nM; under setting [2], less than 200 nM.
As for `CCn1nc(-c2cccc(C3(NS(=O)(=O)CC4CCC4)CC3)c2)cc1Oc1ccc(C(F)(F)F)cc1` [Example 37, 1-cyclobutyl-N-[1-(3-{1-ethyl-5-[4-(trifluoromethyl)phenoxy]-1H-pyrazol-3-yl}phenyl)cyclopropyl] methanesulfonamide], the half-inhibitory concentration (IC50) under setting [1] is less than 200 nM and the IC50 under setting [2] was less than 200 nM.
Consider `CCn1nc(-c2cncc(C3(NS(=O)(=O)CC(F)(F)F)COC3)c2)cc1Oc1ccc(C(F)(F)F)cc1` [Example 126, N-[3-(5-{1-ethyl-5-[4-(trifluoromethyl)phenoxy]-1H-pyrazol-3-yl}pyridine-3-yl)oxetan-3-yl]-2,2,2-trifluoroethanesulfonamide], for which the IC50 is, setting by setting: under setting [1], less than 200 nM; under setting [2], less than 200 nM.
For the molecule `CCn1nc(-c2cccc(C(C)(C)NS(=O)(=O)CC(F)(F)F)c2)cc1Oc1ccc(-c2nnc(C)o2)cc1` [Example 75, N-[1-(3-{1-ethyl-5-[4-(5-methyl-1,3,4-oxadiazol-2-yl)phenoxy]-1H-pyrazol-3-yl}phenyl)-1-methylethyl]-2,2,2-trifluoroethanesulfonamide], the IC50 under setting [1] was less than 200 nM and the IC50 under setting [2] is less than 200 nM.
In the case of `CCn1nc(Oc2ccc(C(F)(F)F)cc2)cc1-c1ccc2c(c1)CC(NS(=O)(=O)NC1CCC1)C2` (centres unmarked) [Example 125, N-cyclobutyl-N′-(5-{1-ethyl-3-[4-(trifluoromethyl)phenoxy]-1H-pyrazol-5-yl}-2,3-dihydro-1H-inden-2-yl)sulfamide], the IC50 was less than 200 nM under setting [1] and less than 200 nM under setting [2].
On to `CCn1nc(-c2cccc(C(C)(C)NS(=O)(=O)CC(F)(F)F)c2)c(C=O)c1Oc1ccc(C(F)(F)F)cc1` [Example 118, N-[2-(3-{1-ethyl-4-formyl-5-[4-(trifluoromethyl)phenoxy]-1H-pyrazol-3-yl}phenyl)propan-2-yl]-2,2,2-trifluoroethanesulfonamide], for which the IC50 by setting is: under setting [1], less than 200 nM; under setting [2], less than 200 nM.
As for `CCn1nc(-c2cccc(C(C)(C)NS(=O)(=O)CC(F)(F)F)c2)c(C#Cc2ccccc2)c1Oc1ccc(C(F)(F)F)cc1` [Example 119, N-[2-(3-{1-ethyl-4-(phenylethynyl)-5-[4-(trifluoromethyl)phenoxy]-1H-pyrazol-3-yl}phenyl)propan-2-yl]-2,2,2-trifluoroethanesulfonamide], the IC50 by setting is: under setting [1], less than 200 nM; under setting [2], less than 200 nM.
As for `CCn1nc(-c2cccc(C(C)(C)NS(=O)(=O)CC(F)(F)F)c2)cc1Oc1ccc(F)cc1` [Example 56, N-(1-{3-[1-ethyl-5-(4-fluorophenoxy)-1H-pyrazol-3-yl]phenyl}-1-methylethyl)-2,2,2-trifluoroethanesulfonamide], the IC50 runs as follows: under setting [1], less than 200 nM; under setting [2], less than 200 nM.
On to `O=S(=O)(CC(F)(F)F)NC1(c2cccc(-c3cc(Oc4ccc(C(F)(F)F)cc4)n(CC(F)(F)F)n3)c2)CC1` [Example 107, 2,2,2-trifluoro-N-[1-(3-{1-(2,2,2-trifluoroethyl)-5-[4-(trifluoromethyl)phenoxy]-1H-pyrazol-3-yl}phenyl)cyclopropyl]ethanesulfonamide], for which the IC50 is less than 200 nM under setting [1] and less than 200 nM under setting [2].
`CCn1nc(Oc2ccc(C(F)(F)F)cc2)cc1-c1cccc(C(C)(C)NS(=O)(=O)CC(F)(F)F)c1` [Example 20, N-[1-(3-{1-ethyl-3-[4-(trifluoromethyl)phenoxy]-1H-pyrazol-5-yl}phenyl)-1-methylethyl]-2,2,2-trifluoroethanesulfonamide]: the IC50 is, setting by setting: under setting [1], less than 200 nM; under setting [2], less than 200 nM.
In the case of `CCn1nc(-c2cccc(C3(NS(=O)(=O)CC(F)(F)F)CC3)c2)cc1Oc1ncc(C(F)(F)F)cc1Cl` [Example 39, N-{1-[3-(5-{[3-chloro-5-(trifluoromethyl)pyridin-2-yl]oxy}-1-ethyl-1H-pyrazol-3-yl)phenyl]cyclopropyl}-2,2,2-trifluoroethanesulfonamide], the IC50 is, setting by setting: under setting [1], less than 200 nM; under setting [2], less than 200 nM.

Source of the values: patent US8871796B2, “Diaryl ether derivatives as notch sparing gamma secretase inhibitors” (Merck Sharp & Dohme Corp., priority 2009, dated 2014).
